Here are results for six molecules from patent publication US20050148661A1 (priority 2002, published 2005).

Data set [1] concerns sodium channels. The data set is described as follows: patch clamp in whole cell configuration on DUM neurons. The format is cell-based, cockroaches.
A short description of data set [2]: clinical cases 1 to 3: oxaliplatin cycles with or without calcium and magnesium infusion.
The nature of data set [3]: clinical study: prevention of the neurotoxicity of oxaliplatin by calcium and magnesium infusion (103 treatments).
Data set [4] has as its system calcium channels. The data set is described as follows: electrophysiological study of the effect on calcium channels. Format: cell-based, cockroaches. How it is done: An electrophysiological study was carried out in vitro by: • a) current and voltage clamp techniques on axon isolated from cockroaches with the double oil separation technique, • b) patch clamp techniques in whole cell configuration on DUM neurons (dorsal unpair median neuron) from cockroaches (DEA Laurence Gamelin, Etude de la neurotoxicité d'un dérivé du platine, l'oxaliplatine, par une approche électrophysiologique, Paris VII (1999)).
Indeed, BAPTA, a calcium chelator, gave an identical sodium channel inhibition curve. […] This blocking of the sodium channels causes abnormalities in the action potential of the neuron, that is to say neuronal depolarization disorders and potentially disturbances in the transmission of the impulse.

For data set [5], the system named is potassium ion currents. The data set is described as follows: current and voltage clamp on axon isolated from cockroaches (double oil separation technique). The format is cell-based. The note with it: applied externally; isolated cockroach axon.
Data set [6] relates to sodium ion currents. The description is as above. The note with it: applied externally; isolated cockroach axon. Format: cell-based.
For data set [7] the following is noted: cited from earlier work.
Data set [8] can be described thus: oxalate and ions in plasma and urine of patients treated with oxaliplatin.
For data set [9] the following is noted: after a cumulative dose of 750-850 mg/m^2; cited from earlier work.
Where [10] appears, read: case 3, C6, without calcium and magnesium.
The mark [11] stands for this setting: case 3, cycles C3, C4, C5, without calcium and magnesium.
Setting [12] is: patients treated with oxaliplatin.

`N.N.[Cl][Pt][Cl]` [cisplatin]: the “effect of other platinum salts (sodium channels)” value (“effect of other platinum salts” below) in data set [1] is recorded as “no effect”.

In the case of `N[C@@H]1CCCC[C@H]1N.O=C([O-])C(=O)[O-].[Pt+2]` (relative stereo) [oxaliplatin, 1,2-diamine cyclohexane (trans-1)oxalatoplatinum], the “distal and perioral paresthesia” value in data set [2] (case 2, cycle 1, 5-FU, folinic acid + oxaliplatin 130 mg/m^2/21 days, no calcium and magnesium) is “grade 3”. Further, the diarrhea result in data set [2] (case 2, cycle 1, no calcium and magnesium) is given as “grade 3”. In [2] (setting [10]), the “neuropathy, NCI” value is recorded as “grade 3” and the “neuropathy, specific scale” value is on record as 3. Also, the “duration of the incapacitating neuropathy” value in data set [2] (case 3, after C6, without calcium and magnesium) worked out at 18 months. Also, the “distal, perioral paresthesia, NCI” value in data set [2] (case 3, cycles 1 and 2, 5-FU, folinic acid + oxaliplatin 130 mg/m^2/3 weeks without calcium and magnesium) was “grade 2”. The “distal, perioral paresthesia, specific scale” value in data set [2] (case 3, cycles 1 and 2, without calcium and magnesium) is given as “grade 1”. In data set [2] (setting [11]), the “neuropathy, NCI” value is reported as “grade 2” and the “neuropathy, specific scale” value was determined as 2. In addition, the “total dose after which oxaliplatin can be reintroduced” value in data set [3] (after prolonged treatment, even with chronic persistent neuropathy, combined with infusion of calcium and magnesium) is “up to 780 mg/m^2”. In addition, the “patients with no neurological manifestation” value in data set [3] (cycle 6, in the absence of calcium and magnesium) is on record as 12%. In data set [3] (group of patients without calcium or magnesium), the “discontinuations linked to progression of the disease” value was found to be 44%. In addition, the “toxic causes for discontinuation: neuropathy” value in [3] (group without calcium and magnesium) was determined as 56%. The “effect on the calcium channels” value in data set [4] was “no significant effect”. Also, the “modification in the potassium ion currents” value in data set [5] is recorded as “no significant modification”. Also, the “amplitude of the action potential over time” value in [1] (current clamp, whole cell patch clamp, DUM neurons) is reported as “reduction in the amplitude of the action potential over time”. Besides, the “plateau of sodium current reduction (inhibition)” value in data set [1] (voltage clamp, DUM neurons) came out at 60%. For the same molecule, in [1] (voltage clamp, over 10 minutes), the “reduction in the sodium current” value is reported as 50%. Moreover, the “modification in the sodium ion currents” value in data set [6] is reported as “no significant modification”. In [7] (FIG. 1), the “share penetrating unchanged into the cell” value was 70%. Also, in [7] (first stage of metabolism), the “share of oxalate release / dichlorodachplatin formation carried out in the intracellular medium” value is reported as 70% and the “share of oxalate release / dichlorodachplatin formation carried out in the plasma medium” value is 30%. Also, in data set [8] (setting [12]), the “oxalate in plasma (normally undetectable)” value was “significant concentrations”; the “plasma concentrations of calcium (total, ionized) and of magnesium (total and overall)” value is “without any variation”. The “calciuria, kaliuria and magnesuria” value in [8] (within 5 hours following the start of infusion) is given as “rise”. The “urinary elimination of oxalate” value in [8] (within 5 hours following the start of infusion of oxaliplatin) is listed as “substantial”. Besides, the “frequency of the grade 3 neuropathy” value in [9] was 15-20%.

Take `O=C(O)CN(CC(=O)O)c1ccccc1OCCOc1ccccc1N(CC(=O)O)CC(=O)O` [BAPTA]: in data set [1] (calcium chelator tested), the “sodium channel inhibition curve compared with oxaliplatin” value is recorded as “identical”.

As for `N.N.O=C([O-])C1(C(=O)[O-])CCC1.[Pt+2]` [carboplatin], in [1], the “effect of other platinum salts” value is listed as “no effect”.

`[Ca]` [calcium]: the “reduction of risk of neurological manifestations at a distance from oxaliplatin administration” value in data set [3] (calcium by the oral route) is on record as “effective”.

As for `NC1CCCCC1N.[Cl][Pt][Cl]` (centres unmarked) [Dach platin, diaminecyclohexaneplatinum], the “effect of other platinum salts” value in data set [1] is “no effect”.
